One compound from patent US20230100367A1, “METHODS OF TREATING CDGSH IRON SULFUR DOMAIN 2 INSUFFICIENCY-ASSOCIATED DISORDERS” (National Yang Ming Chiao Tung University, priority 2021, published 2023) can be followed below.

pEC50: −log10 of the molar value.

Data set [1] relates to Cisd2 promoter with firefly luciferase reporter (HEK293-CISD2). Briefly: Cisd2-luciferase reporter assay. Type of data set: cell-based. Particulars: Homo sapiens; HEK293-CISD2 cells, 24 h incubation, luciferase activity. The protocol:
Compounds 1-35 were tested for increasing the level of Cisd2 in human embryonic kidney cells 293 (HEK293), a transfected cell line expressing Cisd2, using the Cisd2-luciferase reporter assay as described below.
The transfected HEK293 cells stably expressed Cisd2 promoter with firefly luciferase reporter (“HEK293-CISD2”). They were kept in Dulbecco's modified Eagle's medium (“DMEM”) (Gibco, New York, N.Y.). Culture medium was supplemented with 10% heat-inactivated fetal bovine serum (“FBS”), 2 mM L-Glutamine, 1 mM sodium pyruvate, 0.1% MEM Non-Essential Amino Acids, 1 μg/ml puromycin and 1% penicillin/streptomycin (HyClone, Logan, Utah). The cells were maintained at 37° C. in an incubator (Thermo Fisher Scientific, Waltham, Mass.) with an atmosphere of 5% CO2. The stably transfected cells were seeded in 384-well plates at a density of 3×10^3 cells/well. After incubation with a tested compound at 37° C. for 24 h, ONE-Glo™ Luciferase Assay System (Promega, Madison, Wis.) was added at room temperature for 10 minutes to detect any luciferase activity. Luminescence intensity was registered using plate reader BioTek Synergy Neo2™ (Agilent, Santa Clara, Calif.).
EC50 values in this table are presented in […] classes, i.e., A: <1 μM and B: 1 μM-10 μM.
A general note: A reporter such as luciferase makes a cellular process visible.

Another data set relates to Cisd2 hKO-het mice. Briefly: In vivo study for treating nonalcoholic fatty liver disease (NAFLD). Particulars: 0.015 wt % in diet for 4 weeks. The protocol: Compound 1 was evaluated for its anti-nonalcoholic fatty liver disease (“NAFLD”) effect and in vivo toxicity following an assay described below.
Cisd2 floxed allele (Cisd2 f/f) mice were prepared following a procedure described in Wang et al., Hum. Mol. Genet.23, 4770-85 (2014). To obtain Cisd2 heterozygous hepatocyte-specific knockout (Cisd2 hKO-het, Cisd2 f/+; Alb-Cre Tg), Cisd2 f/f mice were bred with Albumin-Cre transgenic (Alb-Cre Tg, JAX003574) mice. After one generation, Cisd2 hKO-het mice were obtained. Male mice were chosen to be used in this study. All mice have a pure or congenic C57BL/6 background and were bred/housed in a specific pathogen-free facility with a 12 h light/12 h dark cycle at a temperature of 20-22° C. Groups of mice at 8 weeks old were provided a diet (AIN93G, TestDiet) containing a vehicle (0.14 wt % of DMF and 0.15 wt % of Cremophor® EL) or compound 1 (0.015 wt %) for 4 weeks.
Histopathology was used to evaluate the efficacy of Compound 1 in ameliorating NAFLD. Liver tissues were collected and fixed with 10% neutral buffered formalin at 4° C. overnight. They were then processed in a tissue processor (STP120, Microm, Thermo Fisher Scientific Inc., Waltham, Mass.), followed by embedding in paraffin. H&E of tissue sections (3-4 μm) were carried out by a standard protocol. […]

Another data set deals with WT mice. Briefly: In vivo fructose-induced NASH model, wild-type mice. The note with it: 0.015 wt % in diet for 5 months. The source says:
Compound 1 was used to alleviate nonalcoholic steatohepatitis (NASH) in wild-type and Cisd2 hKO male mice described above.
Cisd2 hKO were bred for two generations. […] They were fed 30% (w/v) fructose (Alfa Aesar, Tewksbury, Mass.) in drinking water to establish a fructose-induced NASH model. Groups of mice at 2 months old were provided with a diet (AIN93G, TestDiet, St. Louis, Mo.) containing a vehicle (0.14 wt % of DMF and 0.15 wt % of Cremophor® EL) or Compound 1 (0.015 wt %) for 5 months. The food and drinking water were provided ad libitum.
Histopathology was used to evaluate the efficacy of Compound 1 in alleviating NASH. Liver tissues were processed and stained as described in Example 3 above.
An oral glucose tolerance test (GTT) and an insulin tolerance test (ITT) were performed to study beneficial effects of Compound 1 in the fructose-induced glucose intolerance and hepatic insulin resistant mouse model. In the oral glucose tolerance test, mice were fasted for 14 hours (7 p.m. to 9 a.m.) and then were orally administrated with glucose water (1.5 mg/g body weight) using a feeding needle. […] Blood glucose levels were measured using OneTouch® Ultra glucose test strips and SureStep® Meter (LifeScan, Milpitas, Calif.). […] Blood samples were collected and monitored at predetermined time points.

For orientation: pEC50 means the negative decadic logarithm of the EC50, by convention in mol/L. Take `COC(=O)c1c(N)sc(C(=O)Nc2ccc(C)cc2C)c1C` [Compound 1, Methyl 2-amino-5-[(2,4-dimethylphenyl)carbamoyl]-4-methylthiophene carboxylate]: in data set [1], the negative-log EC50 (pEC50) is more than 6.00. In addition, the “liver and kidney toxicity (serum ALT, AST, BUN, CRE)” value in the data set on Cisd2 hKO-het mice is “without detectable liver and kidney toxicity”. Further, the “expression level of Cisd2 protein” value with Cisd2 hKO-het mice (Cisd2+/- mice, control group 0.43) came to 0.7. Further, the toxicity result in the data set with WT mice is on record as “without obvious toxicity”. For the same compound, the Cisd2 protein level in the data set with WT mice (30% fructose in drinking water, control group 0.4) is on record as 0.8.
